Measurements reported in the kinase profiling compilation of Christmann-Franck et al. (2016).

Tests used:
Experiment in all cases: KINOMEscan competition binding
Settings in all cases: compound 2.0 µM
[1] = target: EGFR (human) (UniProt P00533)
[2] = target: PIK3C2B (human) (UniProt O00750)
[3] = target: STK35 (human) (UniProt Q8TDR2)
[4] = target: EIF2AK1 (human) (UniProt Q9BQI3)
[5] = target: EPHA3 (human) (UniProt P29320)
[6] = target: NEK3 (human) (UniProt P51956)
[7] = target: DSTYK (human) (UniProt Q6XUX3)
[8] = target: MAPK4 (human) (UniProt P31152)
[9] = target: PLK3 (human) (UniProt Q9H4B4)
Sequence of PLK3 (human) (Q9H4B4 whole entry, looked up): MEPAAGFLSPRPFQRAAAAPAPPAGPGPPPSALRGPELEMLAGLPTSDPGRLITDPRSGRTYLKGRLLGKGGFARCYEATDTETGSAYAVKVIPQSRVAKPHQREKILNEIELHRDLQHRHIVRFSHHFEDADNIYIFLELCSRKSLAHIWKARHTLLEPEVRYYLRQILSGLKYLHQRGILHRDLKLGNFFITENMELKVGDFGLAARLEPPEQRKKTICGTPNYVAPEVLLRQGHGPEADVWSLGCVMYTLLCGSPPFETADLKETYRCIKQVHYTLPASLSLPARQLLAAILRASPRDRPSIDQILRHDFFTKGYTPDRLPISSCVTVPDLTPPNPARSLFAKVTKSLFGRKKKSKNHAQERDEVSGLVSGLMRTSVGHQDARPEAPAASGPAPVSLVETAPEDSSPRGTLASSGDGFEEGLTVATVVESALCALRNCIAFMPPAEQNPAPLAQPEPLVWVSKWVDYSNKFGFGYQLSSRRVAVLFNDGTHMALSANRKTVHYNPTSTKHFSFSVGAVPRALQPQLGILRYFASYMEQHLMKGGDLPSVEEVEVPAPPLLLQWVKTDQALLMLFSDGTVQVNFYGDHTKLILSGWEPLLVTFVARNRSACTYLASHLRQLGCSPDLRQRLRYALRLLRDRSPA

[10] = target: ADCK3 (human) (UniProt Q8NI60)
[11] = target: CAMK2B (human) (UniProt Q13554)
[12] = target: LIMK2 (human) (UniProt P53671)
[13] = target: STK36 (human) (UniProt Q9NRP7)
[14] = test system: FGFR3 (human), P22607 [G697C]
[15] = target: RPS6KA2 KD1 (human) (UniProt Q15349)
[16] = target: CDK8 (human) (UniProt P49336)
[17] = target: PRKCQ (human) (UniProt Q04759)
[18] = target: MAP2K3 (human) (UniProt P46734)
[19] = target: MYLK (human) (UniProt Q15746)
[20] = target: KIT (human) (UniProt P10721)
Sequence of KIT (human) (P10721 whole entry, looked up): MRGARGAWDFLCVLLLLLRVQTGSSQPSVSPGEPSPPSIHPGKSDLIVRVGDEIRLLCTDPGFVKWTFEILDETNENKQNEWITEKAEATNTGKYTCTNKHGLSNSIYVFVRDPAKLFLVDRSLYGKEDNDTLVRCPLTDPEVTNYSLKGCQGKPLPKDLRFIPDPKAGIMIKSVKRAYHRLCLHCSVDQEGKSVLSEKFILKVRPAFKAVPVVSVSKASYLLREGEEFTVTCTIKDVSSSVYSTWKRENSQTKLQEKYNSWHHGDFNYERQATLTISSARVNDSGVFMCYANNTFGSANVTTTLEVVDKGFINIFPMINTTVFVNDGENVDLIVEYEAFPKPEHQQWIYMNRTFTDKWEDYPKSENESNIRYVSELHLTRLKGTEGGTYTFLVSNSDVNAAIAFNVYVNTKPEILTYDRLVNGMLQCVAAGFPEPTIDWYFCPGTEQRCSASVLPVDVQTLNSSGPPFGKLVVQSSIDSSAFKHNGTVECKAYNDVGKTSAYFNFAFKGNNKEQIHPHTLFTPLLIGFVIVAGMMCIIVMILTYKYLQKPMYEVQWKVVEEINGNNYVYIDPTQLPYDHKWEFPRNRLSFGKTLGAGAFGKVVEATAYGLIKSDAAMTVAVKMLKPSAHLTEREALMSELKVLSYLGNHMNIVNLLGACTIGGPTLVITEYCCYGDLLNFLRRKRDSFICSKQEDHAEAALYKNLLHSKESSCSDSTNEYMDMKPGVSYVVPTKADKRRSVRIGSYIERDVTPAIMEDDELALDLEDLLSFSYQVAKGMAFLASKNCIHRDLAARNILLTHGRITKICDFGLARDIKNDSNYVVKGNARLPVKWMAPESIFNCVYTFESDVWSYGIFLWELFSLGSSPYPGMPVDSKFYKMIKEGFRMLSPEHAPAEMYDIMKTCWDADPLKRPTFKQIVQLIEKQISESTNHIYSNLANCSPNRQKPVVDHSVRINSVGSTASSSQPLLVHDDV

[21] = target: ULK1 (human) (UniProt O75385)
[22] = test system: EGFR (human), P00533 [L858R]
[23] = target: PKN3 (M.tuberculosis) (UniProt Q6P5Z2)
[24] = target: TNK1 (human) (UniProt Q13470)
[25] = target: MARK1 (human) (UniProt Q9P0L2)
[26] = target: PRKD3 (human) (UniProt O94806)
Sequence of PRKD3 (human) (O94806 whole entry, looked up): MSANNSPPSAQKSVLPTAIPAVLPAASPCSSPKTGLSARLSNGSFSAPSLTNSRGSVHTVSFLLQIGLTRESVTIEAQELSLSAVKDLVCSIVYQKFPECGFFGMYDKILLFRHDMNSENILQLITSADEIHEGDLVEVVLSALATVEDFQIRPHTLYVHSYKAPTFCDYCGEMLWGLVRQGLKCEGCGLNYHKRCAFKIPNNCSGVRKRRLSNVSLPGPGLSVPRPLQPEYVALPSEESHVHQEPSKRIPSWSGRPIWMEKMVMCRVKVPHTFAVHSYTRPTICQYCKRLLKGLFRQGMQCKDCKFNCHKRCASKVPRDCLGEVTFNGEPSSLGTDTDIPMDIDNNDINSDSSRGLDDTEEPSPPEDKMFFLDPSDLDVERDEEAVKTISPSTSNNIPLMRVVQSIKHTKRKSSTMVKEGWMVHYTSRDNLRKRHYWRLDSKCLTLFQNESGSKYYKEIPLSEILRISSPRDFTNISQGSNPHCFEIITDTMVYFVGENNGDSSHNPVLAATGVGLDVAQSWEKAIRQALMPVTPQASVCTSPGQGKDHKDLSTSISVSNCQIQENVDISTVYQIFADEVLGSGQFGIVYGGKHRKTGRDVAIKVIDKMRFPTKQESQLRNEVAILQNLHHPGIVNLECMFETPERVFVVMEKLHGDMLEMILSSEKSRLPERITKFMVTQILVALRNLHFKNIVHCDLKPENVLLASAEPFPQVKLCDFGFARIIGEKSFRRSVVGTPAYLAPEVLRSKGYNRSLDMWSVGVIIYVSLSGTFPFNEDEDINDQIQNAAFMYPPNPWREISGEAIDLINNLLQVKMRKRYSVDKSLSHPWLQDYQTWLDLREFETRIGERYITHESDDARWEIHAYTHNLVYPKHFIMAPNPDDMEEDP

[27] = target: HIPK1 (human) (UniProt Q86Z02)
[28] = target: ABL2 (human) (UniProt P42684)
[29] = test system: EGFR (human), P00533 [P753S; 747-752 del]
[30] = target: CLK3 (human) (UniProt P49761)
[31] = target: CSNK1E (human) (UniProt P49674)
Sequence of CSNK1E (human) (P49674 whole entry, looked up): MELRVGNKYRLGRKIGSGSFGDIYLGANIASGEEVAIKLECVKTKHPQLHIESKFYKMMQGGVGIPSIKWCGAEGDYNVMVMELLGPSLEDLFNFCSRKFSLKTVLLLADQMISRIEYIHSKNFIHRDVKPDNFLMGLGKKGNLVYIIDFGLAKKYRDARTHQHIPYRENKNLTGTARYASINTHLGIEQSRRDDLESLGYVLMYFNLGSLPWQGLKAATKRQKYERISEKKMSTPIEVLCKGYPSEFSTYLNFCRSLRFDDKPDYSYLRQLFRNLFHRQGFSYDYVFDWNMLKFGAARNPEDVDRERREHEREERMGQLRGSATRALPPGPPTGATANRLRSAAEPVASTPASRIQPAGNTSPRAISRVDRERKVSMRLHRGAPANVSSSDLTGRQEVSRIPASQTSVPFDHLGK

[32] = target: HIPK4 (human) (UniProt Q8NE63)
[33] = target: YES1 (human) (UniProt P07947)
[34] = target: TEK (human) (UniProt Q02763)
[35] = target: RPS6KA3 KD1 (human) (UniProt P51812)
[36] = target: HIPK2 (human) (UniProt Q9H2X6)
[37] = target: RPS6KA5 KD1 (human) (UniProt O75582)
[38] = target: HCK (human) (UniProt P08631)
[39] = target: CSK (human) (UniProt P41240)
[40] = target: GRK7 (human) (UniProt Q8WTQ7)
[41] = target: MAP4K4 (human) (UniProt O95819)

Sequence of STK35 (human) (Q8TDR2 whole entry, looked up): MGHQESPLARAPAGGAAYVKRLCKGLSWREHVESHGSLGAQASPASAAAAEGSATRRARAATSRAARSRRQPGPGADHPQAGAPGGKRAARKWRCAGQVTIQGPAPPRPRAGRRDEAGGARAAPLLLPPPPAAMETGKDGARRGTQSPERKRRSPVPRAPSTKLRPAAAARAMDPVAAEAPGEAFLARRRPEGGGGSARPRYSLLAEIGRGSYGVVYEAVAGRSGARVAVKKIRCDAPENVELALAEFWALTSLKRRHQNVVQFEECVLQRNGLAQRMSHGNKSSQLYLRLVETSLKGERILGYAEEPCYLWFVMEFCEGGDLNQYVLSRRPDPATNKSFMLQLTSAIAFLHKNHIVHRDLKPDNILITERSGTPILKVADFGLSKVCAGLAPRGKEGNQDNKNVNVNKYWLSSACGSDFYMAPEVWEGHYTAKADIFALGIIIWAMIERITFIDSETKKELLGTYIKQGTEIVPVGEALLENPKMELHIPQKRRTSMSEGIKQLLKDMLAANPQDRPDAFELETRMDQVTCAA
Sequence of PIK3C2B (human) (O00750 whole entry, looked up): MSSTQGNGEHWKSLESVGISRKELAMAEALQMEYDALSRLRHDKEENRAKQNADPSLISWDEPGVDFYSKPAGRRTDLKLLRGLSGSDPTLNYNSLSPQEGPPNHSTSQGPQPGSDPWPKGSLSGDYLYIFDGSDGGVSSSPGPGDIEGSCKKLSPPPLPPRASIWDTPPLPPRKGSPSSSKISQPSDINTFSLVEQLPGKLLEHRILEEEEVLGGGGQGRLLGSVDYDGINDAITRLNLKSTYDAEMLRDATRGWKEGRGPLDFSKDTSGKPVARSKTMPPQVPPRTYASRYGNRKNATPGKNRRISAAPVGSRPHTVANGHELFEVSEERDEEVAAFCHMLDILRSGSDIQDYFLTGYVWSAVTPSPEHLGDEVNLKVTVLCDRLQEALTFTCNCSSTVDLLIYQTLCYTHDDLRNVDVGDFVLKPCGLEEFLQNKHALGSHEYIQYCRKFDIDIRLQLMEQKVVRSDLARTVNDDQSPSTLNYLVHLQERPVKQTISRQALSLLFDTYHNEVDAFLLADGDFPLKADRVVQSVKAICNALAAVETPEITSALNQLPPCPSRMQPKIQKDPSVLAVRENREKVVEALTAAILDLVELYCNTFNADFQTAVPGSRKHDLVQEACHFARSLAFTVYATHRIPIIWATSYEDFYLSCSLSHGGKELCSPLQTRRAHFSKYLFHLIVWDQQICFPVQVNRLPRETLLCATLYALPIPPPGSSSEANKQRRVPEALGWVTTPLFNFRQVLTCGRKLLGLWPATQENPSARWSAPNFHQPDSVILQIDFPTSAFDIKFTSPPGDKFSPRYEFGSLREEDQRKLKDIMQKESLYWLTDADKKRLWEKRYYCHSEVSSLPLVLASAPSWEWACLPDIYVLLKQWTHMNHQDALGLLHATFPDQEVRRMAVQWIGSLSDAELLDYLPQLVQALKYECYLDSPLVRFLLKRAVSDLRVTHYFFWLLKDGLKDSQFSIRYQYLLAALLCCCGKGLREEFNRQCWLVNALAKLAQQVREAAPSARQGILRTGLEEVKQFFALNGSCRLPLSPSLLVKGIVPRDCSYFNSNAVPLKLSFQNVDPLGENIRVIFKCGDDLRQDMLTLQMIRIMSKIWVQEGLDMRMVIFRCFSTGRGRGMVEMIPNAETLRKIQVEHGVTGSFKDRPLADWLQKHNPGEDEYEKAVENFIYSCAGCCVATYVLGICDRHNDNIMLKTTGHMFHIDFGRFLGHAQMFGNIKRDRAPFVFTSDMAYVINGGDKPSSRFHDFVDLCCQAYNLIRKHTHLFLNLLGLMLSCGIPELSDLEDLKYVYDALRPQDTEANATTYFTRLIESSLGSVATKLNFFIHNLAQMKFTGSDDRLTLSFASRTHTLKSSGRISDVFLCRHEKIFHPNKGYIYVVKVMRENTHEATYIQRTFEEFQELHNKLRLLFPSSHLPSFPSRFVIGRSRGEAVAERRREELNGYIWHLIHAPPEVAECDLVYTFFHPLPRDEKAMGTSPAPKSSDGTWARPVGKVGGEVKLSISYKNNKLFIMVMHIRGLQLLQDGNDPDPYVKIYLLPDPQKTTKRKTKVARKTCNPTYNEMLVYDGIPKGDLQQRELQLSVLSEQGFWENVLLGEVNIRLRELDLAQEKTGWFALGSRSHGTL

Work on `N#Cc1ccc2ncnc(NCCc3ccc4ccccc4c3)c2c1` yielded a kinase still bound, per cent of control [1] of 75%, a kinase still bound, per cent of control [2] of 85% and a kinase still bound, per cent of control [3] of 100%. It also gave a kinase still bound, per cent of control [4] of 100%, a kinase still bound, per cent of control [5] of 91% and a kinase still bound, per cent of control [6] of 100%. It also gave a kinase still bound, per cent of control [7] of 61%, a kinase still bound, per cent of control [8] of 87% and a kinase still bound, per cent of control [9] of 80%. For the same compound, the kinase still bound, per cent of control [10] was 100%, the kinase still bound, per cent of control [11] was 88% and the kinase still bound, per cent of control [12] was 94%. The kinase still bound, per cent of control [13] was 100%, the kinase still bound, per cent of control [14] was 100% and the kinase still bound, per cent of control [15] was 100%. For the same compound, the kinase still bound, per cent of control [16] was 8.7%, the kinase still bound, per cent of control [17] was 100% and the kinase still bound, per cent of control [18] was 86%. The kinase still bound, per cent of control [19] was 100%, the kinase still bound, per cent of control [20] was 97% and the kinase still bound, per cent of control [21] was 100%. For the same compound, the kinase still bound, per cent of control [22] was 96%, the kinase still bound, per cent of control [23] was 100% and the kinase still bound, per cent of control [24] was 90%. The kinase still bound, per cent of control [25] was 83%, the kinase still bound, per cent of control [26] was 99% and the kinase still bound, per cent of control [27] was 100%. The kinase still bound, per cent of control [28] was 99%, the kinase still bound, per cent of control [29] was 89% and the kinase still bound, per cent of control [30] was 93%. For the same compound, the kinase still bound, per cent of control [31] was 100%, the kinase still bound, per cent of control [32] was 81% and the kinase still bound, per cent of control [33] was 86%. For the same compound, the kinase still bound, per cent of control [34] was 100%, the kinase still bound, per cent of control [35] was 97% and the kinase still bound, per cent of control [36] was 87%. The kinase still bound, per cent of control [37] was 100%, the kinase still bound, per cent of control [38] was 88% and the kinase still bound, per cent of control [39] was 100%. It also gave a kinase still bound, per cent of control [40] of 100% and a kinase still bound, per cent of control [41] of 97%.
